Experimental data: patent publication US6033823A, “Mutated penicillin G acylase genes” (priority 1994, dated 2000)
Substitutions are numbered along the chain they refer to.

How the values were obtained:
[1] = molecular target: T1, Alcaligenes faecalis Penicillin G acylase mutant B:L56V (Alcaligenes faecalis, UniProt O34142, L321V); experiment: NIPAB kinetics and phenylacetic acid product inhibition, mutant B:L56V; type: biochemical; conditions: from progress curves of NIPAB deacylation, 25° C., 0.1 M NaH2PO4.H2O buffer pH 7.5, read-out: Ki Phenylacetic acid (inhibition constant, dissociation constant)
T1 construct: alpha 202 aa, beta 551 aa; recombinant, E. coli host
T1 sequence (O34142 27-228): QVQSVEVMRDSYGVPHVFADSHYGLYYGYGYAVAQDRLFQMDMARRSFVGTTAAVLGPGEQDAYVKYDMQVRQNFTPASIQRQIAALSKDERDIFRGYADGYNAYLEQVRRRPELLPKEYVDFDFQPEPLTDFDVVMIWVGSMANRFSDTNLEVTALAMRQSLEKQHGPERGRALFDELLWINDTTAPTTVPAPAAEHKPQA
T1 sequence (O34142 266-816 L321V): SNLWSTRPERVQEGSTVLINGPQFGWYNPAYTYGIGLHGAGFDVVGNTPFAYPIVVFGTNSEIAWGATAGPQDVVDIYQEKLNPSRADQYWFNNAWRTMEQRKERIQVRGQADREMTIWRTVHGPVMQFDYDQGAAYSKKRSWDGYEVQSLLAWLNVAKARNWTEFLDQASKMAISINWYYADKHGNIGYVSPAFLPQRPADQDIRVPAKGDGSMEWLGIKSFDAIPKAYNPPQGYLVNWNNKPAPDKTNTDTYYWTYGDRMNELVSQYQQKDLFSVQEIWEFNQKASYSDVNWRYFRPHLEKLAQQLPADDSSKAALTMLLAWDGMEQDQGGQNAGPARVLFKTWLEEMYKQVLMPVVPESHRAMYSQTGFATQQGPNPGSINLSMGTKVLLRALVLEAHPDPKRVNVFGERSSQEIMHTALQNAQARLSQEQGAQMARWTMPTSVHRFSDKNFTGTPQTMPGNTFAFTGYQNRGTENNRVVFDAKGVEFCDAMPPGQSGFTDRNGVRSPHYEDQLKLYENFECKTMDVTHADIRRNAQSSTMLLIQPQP
Experimental: (§1) In a continuous assay Penicillin G acylase was assayed spectro-fotometrically with the chromogenic substrate NIPAB [6-nitro-3-phenylacetamido-benzoic acid]. The liberation of 3-amino-6-nitrobenzoic acid was monitored by measuring the extinction at 405 nm in a Kontron 610 kinetic spectrofotometer. Measuring maximal rate, the assays were performed at 25° C. using 20 mM NaH2 PO4.H2 O at pH 7.5 with 20 mM NIPAB and 100 μl enzym solution (at a proper dilution). Initial rate measurements were performed with varying concentration of NIPAB.
(§2) Initial rate measurements were performed with excess substrate over the enzyme. Catalytic parameters were derived from least-squares fitting of the measured initial rates plotted for various substrate concentrations according to the Michaelis-Menten equation.
(§3) The complete conversion of NIPAB was followed as a funtion of time at 20, 50 and 100 μM NIPAB by following the increase in absorbtion at 405 nm. Products of this conversion are phenylacetic acid and 3-amino-6-nitrobenzoic acid. The conversion was performed at 25° C. in 0.1 M NaH2 PO4.H2 O buffer pH 7.5. The progress curves of the deacylation of NIPAB could be fitted very well when product inhibition by phenylacetic acid was taken into account. […]

[2] = molecular target: T2, Alcaligenes faecalis Penicillin G acylase mutant B:L56A (Alcaligenes faecalis, UniProt O34142, L321A); experiment: NIPAB kinetics and phenylacetic acid product inhibition, mutant B:L56A; type: biochemical; conditions: from progress curves of NIPAB deacylation, 25° C., 0.1 M NaH2PO4.H2O buffer pH 7.5, read-out: Ki Phenylacetic acid (inhibition constant, dissociation constant)
T2 construct: alpha 202 aa, beta 551 aa; recombinant, E. coli host
T2 sequence (O34142 27-228): T1 sequence (O34142 27-228)
T2 sequence (O34142 266-816 L321A): T1 sequence (O34142 266-816 L321V) with V56A
Experimental: as §1, §2, §3

O=C(O)Cc1ccccc1 [phenylacetic acid]
Ki [1]: 31 µM | Ki [2]: 59 µM
